Source: patent US7585846B2, “Compounds for delivering amino acids or peptides with antioxidant activity into mitochondria and use thereof” (University of Rochester, priority 2003, dated 2009)

Assays:
[1] = tested on: cultured neonatal rat ventricular myocytes; assay: H2O2-induced depolarization of mitochondrial membrane potential (TMRM fluorescence) in myocytes; format: cell-based; settings: for onset of H2O2-induced depolarization and loss of TMRM fluorescence: pretreatment 50 or 100 μM for 30 minutes
Procedure: TMRM is a lipophilic cation that partitions selectively into the negatively charged mitochondria Neonatal cultured myocytes (6 days in culture) were loaded with 10 nM TMRM for 60 minutes at 37° C. The myocytes were pretreated with either 50 or 100 μM Mito GSH or 100 μM non-targeted GSH for 30 minutes and then washed to remove the antioxidants from the solution in which myocytes were suspended. As a control, myocytes were not pretreated with any drug. TMRM was excited at 555 nm and fluorescence emission was detected at 590 nm. Fluorescence images were taken every 2 minutes. At the arrow, myocytes were subjected to oxidative stress by adding 50 μM H2O2. Plots were normalized to baseline, and are shown as F/Fo, where F is the emitted fluorescence at any given time and Fo is the baseline fluorescence before addition of H2O2. […] The traces were drawn from the mean values of 7-10 experiments.
TMRM was used as an indicator of mitochondrial membrane potential. The myocytes were pretreated with 50 μM Mito GSH for 30 minutes and then washed to remove the antioxidant from the solution in which myocytes were suspended. In control, myocytes were not pretreated with any drug. TMRM was excited at 555 nm and fluorescence emission was detected at 590 nm. Fluorescence images were taken every 2 minutes to avoid photobleaching and phototoxicity. Myocytes were subjected to oxidative stress by adding 50 μM H2O2.

[2] = tested on: spinal cord neurons; assay: Oxidative stress-induced apoptosis (condensed and fragmented nuclei, Hoechst staining); format: cell-based
From the text: FIG. 3B is a control for FIG. 3A. FIG. 3C is a bar diagram summary of the percent of neurons with condensed fragmented nuclei after H2O2 treatment. The concentrations of H2O2 used are shown on the x-axis.
Central to the proposed therapeutic intervention is the belief that SCN undergo apoptosis and possibly necrosis under oxidative stress. […] Image pairs, obtained from H2O2-treated (FIG. 3A) and non-treated (FIG. 3B) SCN, are shown in both phase contrast and after Hoechst nuclear staining. Many of the neurons in FIG. 3A show condensed and fragmented nuclei (arrows) indicative of apoptotic cells. In contrast, control neurons in FIG. 3B show predominantly diffuse nuclear staining (arrows). […] This percentage increased to […] for 500 μM H2O2. […] These changes were concentration-dependent and increased by mtGSH depletion. […] In contrast, immunoreactivity to cytochrome C oxidase (COX), a marker in the inner mitochondrial membrane remains independent of the mitochondrial insults by H2O2 (FIG. 3E). The differential staining between Cyt C and COX affords a secondary method to assess whether a given neuron has undergone mitochondrial permeability transition (MPT).

[3] = tested on: Rat heart mitochondria; assay: Mitochondrial membrane potential by TPP+ sensitive electrode under rotenone/t-BuOOH oxidative stress; format: biochemical; settings: pretreatment 5 mM at 4° C. for 30 minutes; 5 μM rotenone and 100 μM t-BuOOH; TPP+ signal
Procedure: Mitochondrial membrane potential was measured by a TPP+ (tetraphenyl phosphonium) sensitive electrode. Rat heart mitochondria (1 mg protein/100 μl) were transferred to a beaker (at the first arrow) containing 0.9 ml of 150 mM KCl, 5 mM Hepes, 6 μM TPP+ and 5 mM succinate buffer. […] At the second arrow, mitochondria were subjected to oxidative stress by adding 5 μM rotenone (Complex I inhibitor) and 100 μM tert-butylhydroperoxide (t-BuOOH) to the buffer.

[4] = tested on: Rat heart mitochondria; assay: Mitochondrial membrane potential by safranine fluorescence under rotenone/t-BuOOH oxidative stress; format: biochemical; settings: pretreatment 5 mM for 30 minutes; 5 μM rotenone and 100 μM t-BuOOH
Procedure: Mitochondrial membrane potential was measured by safranine. Safranine is a positively charged dye that accumulates in mitochondria on establishment of an electrical potential across the mitochondrial inner membrane. However, its fluorescence is quenched by its accumulation in mitochondria in response to mitochondrial membrane potential. Rat heart mitochondria (0.2 mg protein/200 μl) were transferred to a well containing 0.3 ml of 150 mM KCl, 5 mM Hepes, 15 μM safranine, 5 mM succinate buffer, 5 μM rotenone and 100 μM t-BuOOH. The mitochondria were placed in a multiplate reader. Fluorescence measurements were made with excitation and emission wavelengths of 485 and 585 nm respectively. Rotenone and t-BuOOH induced mitochondrial membrane potential resulting in a release of intramitochondrial safranine indicated by an increase in fluorescence signal.

[5] = tested on: Male Sprague-Dawley rat hearts; settings: 50 μM for 10 min prior to ischemia
Procedure: Male Sprague-Dawley rat hearts were retrograde (Langendorff) perfused with oxygenated Krebs Henseleit (KH) buffer in constant flow mode (12 mL/min/gram wet weight). Hearts were not electrically stimulated, and beat spontaneously at approximately 280 bpm. Left-ventricular pressure (LVP) was measured by a balloon inserted in the left ventricle, linked to a pressure transducer with digital recording at 500 Hz. […] Following an equilibration period of approximately 25 mm., global normothermic ischemia was imposed for 25 mm., followed by reperfusion for 30 mm as indicated by the arrows on the traces. For mNAC treatment, the drug was dissolved in KH buffer and infused via a port just above the aortic perfusion cannula, at a final concentration of 50 μM, for 10 min. prior to the onset of ischemia.
The ability of mitochondrially targeted N-acetylcysteine (mNAC) to improve post-ischemic recovery in rat heart was assessed. Male Sprague-Dawley rat hearts were retrograde (Langendorff) perfused with oxygenated Krebs Henseleit (KH) buffer in constant flow mode (12 mL/min/gram wet weight). Hearts were not electrically stimulated, and beat spontaneously at approximately 280 beats per minute. Left-ventricular pressure (LVP) was measured by a balloon inserted in the left ventricle, linked to a pressure transducer with digital recording at 500 Hz. […]

[6] = tested on: brain striatal neurons; settings: pretreatment 100 μM; 100 μM NMDA; DCF fluorescence
Procedure: Intracellular reactive oxygen species (ROS) were measured by using the redox-sensitive dye, dichlorohydrofluorescein (H2DCFDA). […] Cultured striatal neurons (10 days in culture) were loaded with 50 nM H2DCFDA for 25 min. The neurons were excited at 488 nm and the image was acquired at 515 nm wavelength. ROS production was induced by treating the neurons with 100 μM NMDA. An increase in DCFDA fluorescence by NMDA treatment reflected an increased production of ROS or oxidative stress. […] Plots were normalized to baseline, and are shown as F/Fo, where F is the emitted fluorescence at any given time and Fo is the baseline fluorescence before addition of NMDA. […] The traces were drawn from the mean values of 3 experiments.

With N[C@@H](CCC(=O)N[C@@H](CS)C(=O)NCC(=O)O)C(=O)O [GSH, glutathione, reference compound] the “time for onset of H2O2-induced depolarization (versus control)” value (“time for onset … (versus control)” for short) ([1]; pretreatment 100 μM) was “did not significantly increase the time for onset of H2O2-induced depolarization”.
With OO [H2O2] the “neurons with condensed and fragmented nuclei” value ([2]; 250 μM H2O2) was ~42%.
With C[N+](C)(C)CCOC(=O)[C@@H](N)CS.[Cl-] [cysteine choline ester, [2-(2-Amino-3-mercapto-L-propionyloxy)-ethyl]-trimethyl-ammonium chloride] the “oxidative stress-induced depolarization of mitochondrial membrane potential” value (“oxidative stress-induced depolarization” below) [3] was “prevented the oxidative stress-induced depolarization significantly”.
For CC(=O)N[C@@H](CSC(C)=O)C(=O)OCC[N+](C)(C)C [N,S-acetyl cysteine choline ester, S,N-acetyl-L-cysteine choline ester], the “release of intramitochondrial safranine (depolarization of mitochondrial membrane potential)” value [4] was “diminished the release of intramitochondrial safaranine”.
CC(=O)N[C@@H](CS)C(=O)OCC[N+](C)(C)C [mNAC, N-acetyl-L-cysteine choline ester] was tested, and the “onset of ischemic contracture” value [5] was “appeared to delay the onset of ischemic contracture”, the “overall recovery of LV developed pressure (systolic minus diastolic)” value ([5]; 25 min global ischemia, 30 min reperfusion, control 4.1%) was 15.7% and the “oxidative stress-induced depolarization” value [3] was “prevented the oxidative stress-induced depolarization significantly”. For the same compound, the “onset of H2O2-induced depolarization and loss of TMRM fluorescence” value ([1]; 50 μM H2O2) was “delayed onset of H2O2-induced depolarization and loss of fluorescence”.
C[N+](C)(C)CCOC(=O)CNC(=O)[C@H](CS)NC(=O)CC[C@H](N)C(=O)O.[Cl-] [Mito GSH, Glutathione choline ester chloride] was tested, and the “NMDA-induced increase in ROS production” value [6] was “prevented NMDA-induced increase in ROS production”, the “oxidative stress-induced depolarization” value [3] was “prevented the oxidative stress-induced depolarization significantly” and the “time for onset … (versus control)” value ([1]; pretreatment 50 μM) was “significantly enhanced the time for onset of H2O2-induced depolarization”. The “time to which TMRM fluorescence persisted after H2O2 treatment” value ([1]; pretreatment 50 μM for 30 minutes, 50 μM H2O2, control invisible at 32 minutes) was 50 min, the “time for onset … (versus control)” value ([1]; pretreatment 100 μM) was “significantly enhanced the time for onset of H2O2-induced depolarization” and the “Time for onset of H2O2-induced depolarization” value ([1]; pretreatment 100 μM, control 25±3.2 min) was 53 ± 3.6 min. For the same compound, the “onset of H2O2-induced depolarization and loss of TMRM fluorescence” value ([1]; 50 μM H2O2) was “delayed onset of H2O2-induced depolarization and loss of TMRM fluorescence”.
For C=CC(O)CC(=O)O (stereo not shown) [3-HP, 3-hydroxy-4-pentenoate], the “cells with condensed and fragmented nuclei” value ([2]; mtGSH depletion by 3-HP prior to 250 μM H2O2 treatment) was 70%.
